Laboratory results from US11292788B2, “IL-17 and IFN-gamma inhibition for the treatment of autoimmune diseases and chronic inflammation” (Immunic AG, priority 2017, dated 2022).
Values after ≈ are worked out from the molar mass of the structure shown. Read-outs that look alike come from different tables or passages of the source.

What was measured:
IL-17A = test: Cytokine assay: IL-17A production by human PBMC stimulated with PHA; type: cell-based; details: IC50 class, read-out: IL-17A Inhib.
Outline: (§1)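 Healthy-donor PBMC, isolated on Histopaque-1077, were seeded at 1×10^5 cells/well in RPMI1640 with 10% dialyzed heat-inactivated FCS, activated with 2 μg/ml PHA and incubated with compound for 48 hours. Supernatant cytokine was measured by Luminex BioPlex or ELISA. IC50 came from semilogarithmic titration; screening used 10, 1, 0.1 and 0.01 μM.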

IL-17F = test: Cytokine assay: IL-17F production by human PBMC stimulated with PHA; type: cell-based; details: IC50 class, read-out: IL-17F Inhib.
Outline: as §1

INF-γ = test: Cytokine assay: INF-γ production by human PBMC stimulated with PHA; type: cell-based; details: Homo sapiens, PBMC, IC50 class, read-out: IFN-gamma Inhib.
Outline: as §1

[1] = Aqueous solubility in 50 mM phosphate buffer (HPLC/DAD); type: physicochemical; details: 50 mM phosphate buffer, 23 °C, pH 7.4, aqueous buffer, kinetic from dmso stock, aqueous solubility class; read-out: aq. solub.
Procedure: To achieve this, the samples (final volume 500 μl, 200 μM compound concentration) were incubated for 24 hours at 23° C. under continuous shaking at 1400 rpm (Thermomixer, Eppendorf) in aqueous phosphate buffers (pH 4.0, 6.0, 7.4 and 9.0) with a final DMSO concentration of 1%. To separate the undissolved compound from the solution, the samples were centrifuged (30 min 18000 g at 23° C.). Supernatants were measured via HPLC equipped with a UV detector and concentrations were calculated according to signals of a standard curve. The standard curve was prepared by diluting a stock solution of each compound (c=0.1 mg/ml; received by adding 10 μl of 20 mM compound in DMSO to 914 μl MeCN) in a certain amount of MeCN to cover a range of 0.1 to 200 μg/ml.

[2] = Microsomal stability: incubation with human liver microsomes, residual parent compound by HPLC-MS/MS; type: in vitro ADME; details: up to 60 min, read-out: t1/2 hLM
Procedure: Metabolic stability of compounds of the present invention was determined by incubation with human liver microsomes and subsequent determination of residual amount of the respective compound (“parent compound”) by HPLC-MS/MS.
In order to achieve this, in a final reaction volume of 1000 μl, each compound was incubated at a final concentration of 1 μM with 0.5 mg/ml human liver microsomes (HLM Pool 50 Donors, 20 mg/ml, BD Gentest, #452156, LotNr 88114) in 0.1 M Potassium phosphate buffer at pH 7.4, with a cofactor in form of a NADPH regenerating system (Promega, #V9510) according to the manufacturers' specifications. The final DMSO concentration in each sample was 0.4%. The incubation was performed at 37° C. under shaking conditions (Thermomixer, 1400 rpm) for different time intervals up to 60 min. To stop the reaction, for each time point 200 μl of the reaction were taken out and 200 μl ice-cold acetonitrile was added. Then, the samples were centrifuged (4° C., 14000*g for 15 min). The supernatant was analyzed for residual parent compound concentration and scanned for metabolites using HPLC-MS/MS. By using optimized MS methods for each compound, the peak area under curve for the compound specific signal is determined. The change of the peak areas over the assay time of 60 min resemble the remaining parent compound in % of T0. By these points, a balancing line was set. The half-time, as well as the clearance, can then be calculated on the basis of the slope.

[3] = human liver microsomes 0.5 mg/ml, compound 1 μM, pH 7.4, 37° C.
[4] = pH 7.4, human liver microsomes, 1 μM compound, 0.5 mg/ml HLM, 37° C.

Structure (SMILES): CCOC(=O)c1c(-c2c(F)cccc2Cl)noc1-c1cnn(CC(O)CC)c1C(F)(F)F (racemic) [Example 14, ethyl 3-(2-chloro-6-fluorophenyl)-5-[1-(2-hydroxybutyl)-5-(trifluoromethyl)-1H-pyrazol-4-yl]-1,2-oxazole-4-carboxylate]
- IC50 (IL-17A; Homo sapiens, PBMC): < 50 nM
- IC50 (IL-17F; Homo sapiens, PBMC): < 50 nM
- IC50 (INF-γ): < 50 nM
- solubility at 24 h [1]: 3 to 9.99 µM (≈ 1.43 to 4.75 µg/mL)
- half-life at 1 μM [2, 3]: 10 to 40 min

Structure (SMILES): CCOC(=O)c1c(-c2c(F)cccc2Cl)noc1-c1cnn(CC(O)C(F)(F)F)c1C(F)(F)F (racemic) [Example 15, ethyl 3-(2-chloro-6-fluorophenyl)-5-[1-(3,3,3-trifluoro-2-hydroxypropyl)-5-(trifluoromethyl)-1H-pyrazol-4-yl]-1,2-oxazole-4-carboxylate]
- IC50 (IL-17A; Homo sapiens, PBMC): < 50 nM
- IC50 (IL-17F; Homo sapiens, PBMC): < 50 nM
- IC50 (INF-γ): < 50 nM
- solubility at 24 h [1]: 3 to 9.99 µM (≈ 1.55 to 5.15 µg/mL)
- half-life at 1 μM [2, 3]: 2 to 9.99 min

Structure (SMILES): [2H]C(C)(O)Cn1ncc(-c2onc(-c3c(F)cccc3Cl)c2-c2nccs2)c1C(F)(F)F (racemic) [Example 31, 1-{4-[3-(2-chloro-6-fluorophenyl)-4-(1,3-thiazol-2-yl)-1,2-oxazol-5-yl]-5-(trifluoromethyl)-1H-pyrazol-1-yl}(2-^2H)propan-2-ol]
- IC50 (IL-17A; Homo sapiens, PBMC): < 50 nM
- IC50 (IL-17F; Homo sapiens, PBMC): < 50 nM
- IC50 (INF-γ): < 50 nM
- solubility at 24 h [1]: < 1 µM
- half-life at 1 μM [2, 3]: 40 to 100 min

Structure (SMILES): [2H]C(C)(O)Cn1ncc(-c2onc(-c3c(F)cccc3Cl)c2C(=O)OCC)c1C(F)(F)F (racemic) [Example 32, ethyl 3-(2-chloro-6-fluorophenyl)-5-{1-[2-hydroxy(2-^2H)propyl]-5-(trifluoromethyl)-1H-pyrazol-4-yl}-1,2-oxazole-4-carboxylate]
- IC50 (IL-17A; Homo sapiens, PBMC): < 50 nM
- IC50 (IL-17F; Homo sapiens, PBMC): < 50 nM
- IC50 (INF-γ): < 50 nM
- solubility at 24 h [1]: > 10 µM
- half-life at 1 μM [2, 3]: 40 to 100 min

Structure (SMILES): [2H]C(C)(O)Cn1ncc(-c2onc(-c3c(F)cccc3Cl)c2C(=O)OC)c1C(F)(F)F (racemic) [Example 33, methyl 3-(2-chloro-6-fluorophenyl)-5-{1-[2-hydroxy(2-^2H)propyl]-5-(trifluoromethyl)-1H-pyrazol-4-yl}-1,2-oxazole-4-carboxylate]
- IC50 (IL-17A; Homo sapiens, PBMC): < 50 nM
- IC50 (IL-17F; Homo sapiens, PBMC): < 50 nM
- IC50 (INF-γ): < 50 nM
- solubility at 24 h [1]: > 10 µM
- half-life at 1 μM [2, 3]: > 100 min

Structure (SMILES): [2H]C(C)(O)Cn1ncc(-c2onc(-c3c(F)cccc3Cl)c2COC)c1C(F)(F)F (racemic) [Example 95, 1-{4-[3-(2-chloro-6-fluorophenyl)-4-(methoxymethyl)-1,2-oxazol-5-yl]-5-(trifluoromethyl)-1H-pyrazol-1-yl}(2-^2H)propan-2-ol]
- IC50 (IL-17A; Homo sapiens, PBMC): 50 to 500 nM
- IC50 (IL-17F; Homo sapiens, PBMC): 50 to 500 nM
- IC50 (INF-γ): 50 to 500 nM
- solubility at 24 h [1]: > 10 µM
- half-life at 1 μM [2, 4]: > 100 min

Structure (SMILES): C[C@]1(O)C[C@H](n2ncc(-c3onc(-c4c(F)cccc4Cl)c3C(=O)OC3CC3)c2C(F)(F)F)C1 [Example 51, cyclopropyl 3-(2-chloro-6-fluorophenyl)-5-{1-[3-hydroxy-3-methylcyclobutyl]-5-(trifluoromethyl)-1H-pyrazol-4-yl}-1,2-oxazole-4-carboxylate]
- IC50 (IL-17A): 50 to 500 nM
- IC50 (IL-17F): < 50 nM
- solubility at 24 h [1]: 3 to 9.99 µM (≈ 1.5 to 4.99 µg/mL)
- half-life at 1 μM [2, 3]: 40 to 100 min

Structure (SMILES): COCc1c(-c2c(F)cccc2Cl)noc1-c1cnn(CC(C)(C)O)c1C(F)(F)F [Example 65, 1-(4-(3-(2-chloro-6-fluorophenyl)-4-(methoxymethyl)isoxazol-5-yl)-5-(trifluoromethyl)-1H-pyrazol-1-yl)-2-methylpropan-2-ol]
- IC50 (IL-17A; Homo sapiens, PBMC): 500 to 5000 nM
- IC50 (IL-17F; Homo sapiens, PBMC): 500 to 5000 nM
- IC50 (INF-γ): 500 to 5000 nM
- solubility at 24 h [1]: > 10 µM

Structure (SMILES): COCc1c(-c2c(F)cccc2Cl)noc1-c1cnn(C[C@@H](C)O)c1C(F)(F)F [Example 66, (2R)-1-(4-(3-(2-chloro-6-fluorophenyl)-4-(methoxymethyl)isoxazol-5-yl)-5-(trifluoromethyl)-1H-pyrazol-1-yl)propan-2-ol]
- IC50 (IL-17A; Homo sapiens, PBMC): 50 to 500 nM
- IC50 (IL-17F; Homo sapiens, PBMC): 50 to 500 nM
- IC50 (INF-γ): < 50 nM
- solubility at 24 h [1]: > 10 µM

Structure (SMILES): CCN(CC)CCOc1cccc(-c2noc(-c3cnn(CCC(C)(C)O)c3C)c2-c2ncccn2)c1Cl [Example 144, 4-[4-(3-{2-chloro-3-[2-(diethylamino)ethoxy]phenyl}-4-(pyrimidin-2-yl)-1,2-oxazol-5-yl)-5-methyl-1H-pyrazol-1-yl]-2-methylbutan-2-ol]
- IC50 (IL-17A; Homo sapiens, PBMC): 500 to 5000 nM
- IC50 (IL-17F; Homo sapiens, PBMC): 500 to 5000 nM
- IC50 (INF-γ): 50 to 500 nM
- solubility at 24 h [1]: > 10 µM

Structure (SMILES): Cc1c(-c2onc(-c3cccc(OCCN(C)C)c3Cl)c2-c2ncccn2)cnn1CCC(C)(C)O [Example 145, 4-[4-(3-{2-chloro-3-[2-(dimethylamino)ethoxy]phenyl}-4-(pyrimidin-2-yl)-1,2-oxazol-5-yl)-5-methyl-1H-pyrazol-1-yl]-2-methylbutan-2-ol]
- IC50 (IL-17A; Homo sapiens, PBMC): 500 to 5000 nM
- IC50 (IL-17F; Homo sapiens, PBMC): 500 to 5000 nM
- IC50 (INF-γ): 50 to 500 nM
- half-life at 1 μM [2, 4]: > 100 min

Structure (SMILES): Cc1c(-c2onc(-c3cccc(OCCN4CCCC4)c3Cl)c2-c2ncccn2)cnn1CCC(C)(C)O [Example 146, 4-[4-(3-{2-chloro-3-[2-(pyrrolidin-1-yl)ethoxy]phenyl}-4-(pyrimidin-2-yl)-1,2-oxazol-5-yl)-5-methyl-1H-pyrazol-1-yl]-2-methylbutan-2-ol]
- IC50 (IL-17A; Homo sapiens, PBMC): 50 to 500 nM
- IC50 (IL-17F; Homo sapiens, PBMC): 500 to 5000 nM
- IC50 (INF-γ): 50 to 500 nM
- half-life at 1 μM [2, 4]: > 100 min

Structure (SMILES): COC(=O)c1c(-c2cccc(OCCN3CCOCC3)c2Cl)noc1-c1cnn(C[C@H](C)O)c1C(F)(F)F [Example 148, methyl 3-{2-chloro-3-[2-(morpholin-4-yl)ethoxy]phenyl}-5-{1-[(2S)-2-hydroxypropyl]-5-(trifluoromethyl)-1H-pyrazol-4-yl}-1,2-oxazole-4-carboxylate]
- IC50 (IL-17A; Homo sapiens, PBMC): < 50 nM
- IC50 (IL-17F; Homo sapiens, PBMC): < 50 nM
- IC50 (INF-γ): < 50 nM
- half-life at 1 μM [2, 4]: 2 to 9.99 min

Structure (SMILES): COCc1c(-c2cccc(OCCN3CCOCC3)c2Cl)noc1-c1cnn([C@H]2C[C@@](C)(O)C2)c1C(F)(F)F [Example 150, 3-[4-(3-{2-chloro-3-[2-(morpholin-4-yl)ethoxy]phenyl}-4-(methoxymethyl)-1,2-oxazol-5-yl)-5-(trifluoromethyl)-1H-pyrazol-1-yl]-1-methylcyclobutan-1-ol]
- IC50 (IL-17A; Homo sapiens, PBMC): < 50 nM
- IC50 (IL-17F; Homo sapiens, PBMC): < 50 nM
- IC50 (INF-γ): < 50 nM
- half-life at 1 μM [2, 4]: 2 to 9.99 min

Structure (SMILES): COCc1c(-c2cccc(OCCN(C)C)c2Cl)noc1-c1cnn([C@H]2C[C@@](C)(O)C2)c1C(F)(F)F [Example 151, 3-[4-(3-{2-chloro-3-[2-(dimethylamino)ethoxy]phenyl}-4-(methoxymethyl)-1,2-oxazol-5-yl)-5-(trifluoromethyl)-1H-pyrazol-1-yl]-1-methylcyclobutan-1-ol]
- IC50 (IL-17A; Homo sapiens, PBMC): 50 to 500 nM
- IC50 (IL-17F; Homo sapiens, PBMC): 50 to 500 nM
- IC50 (INF-γ): 50 to 500 nM
- half-life at 1 μM [2, 4]: > 100 min

Structure (SMILES): COCc1c(-c2cccc(OCCN3CCOCC3)c2Cl)noc1-c1cnn([C@H]2C[C@](C)(O)C2)c1C(F)(F)F [Example 152, 3-[4-(3-{2-chloro-3-[2-(morpholin-4-yl)ethoxy]phenyl}-4-(methoxymethyl)-1,2-oxazol-5-yl)-5-(trifluoromethyl)-1H-pyrazol-1-yl]-1-methylcyclobutan-1-ol]
- IC50 (IL-17A; Homo sapiens, PBMC): 50 to 500 nM
- IC50 (IL-17F; Homo sapiens, PBMC): 50 to 500 nM
- IC50 (INF-γ): 50 to 500 nM
- half-life at 1 μM [2, 4]: 2 to 9.99 min

Structure (SMILES): COCc1c(-c2cccc(OCCN(C)C)c2Cl)noc1-c1cnn([C@H]2C[C@](C)(O)C2)c1C(F)(F)F [Example 153, 3-[4-(3-{2-chloro-3-[2-(dimethylamino)ethoxy]phenyl}-4-(methoxymethyl)-1,2-oxazol-5-yl)-5-(trifluoromethyl)-1H-pyrazol-1-yl]-1-methylcyclobutan-1-ol]
- IC50 (IL-17A; Homo sapiens, PBMC): ≥ 5000 nM
- IC50 (IL-17F; Homo sapiens, PBMC): 500 to 5000 nM
- IC50 (INF-γ): 500 to 5000 nM
- half-life at 1 μM [2, 4]: > 100 min
